In US8557853B2, “Aryl fluoroethyl ureas acting as alpha 2 adrenergic agents” (Allergan, Inc., priority 2007, dated 2013):
pEC50: −log10 of the molar value. Like-named read-outs stand apart in the source and are kept apart here.

What was measured:
Assay type in all cases: cell-based
[1] = molecular target: T1, alpha2A receptor (Homo sapiens, UniProt P08913); assay: RSAT (Receptor Selection and Amplification Technology) assay, alpha 2A; conditions: for pEC50 / Alpha 2A EC50: RSAT, transfected NIH-3T3 cells, "not active" = not active at concentrations less than 10 micromolar; for Alpha 2A IA: intrinsic activity: ratio of maximal effect of drug to maximal effect of standard full agonist brimonidine (UK14304)
T1 construct: expressed in transfected cells; host or cells: NIH-3T3 cells
T1 sequence (P08913 1-465): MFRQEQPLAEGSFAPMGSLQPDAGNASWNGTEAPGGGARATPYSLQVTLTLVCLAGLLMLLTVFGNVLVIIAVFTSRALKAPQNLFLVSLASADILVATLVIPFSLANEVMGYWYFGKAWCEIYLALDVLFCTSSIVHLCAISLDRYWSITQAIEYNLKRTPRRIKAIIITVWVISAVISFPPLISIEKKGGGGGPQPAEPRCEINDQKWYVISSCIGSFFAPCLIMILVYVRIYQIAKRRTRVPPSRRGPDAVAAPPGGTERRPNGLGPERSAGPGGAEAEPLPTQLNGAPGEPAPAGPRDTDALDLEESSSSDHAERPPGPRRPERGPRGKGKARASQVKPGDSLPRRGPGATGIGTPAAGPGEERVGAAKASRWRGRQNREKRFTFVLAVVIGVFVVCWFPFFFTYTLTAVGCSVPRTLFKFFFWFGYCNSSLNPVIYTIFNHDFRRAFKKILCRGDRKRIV
Text: (§1) The aryl fluoroethyl ureas of the invention are agonists of alpha2 adrenergic receptors. […] Al, 1995, Pharmacol. Toxicol. 76, pp. 308-311 (incorporated herein by reference) and is also described below. Another reference pertinent to this assay is Conklin et al. (1993) Nature 363:274-6, Receptor Selection and Amplification Technology (RSAT) assay, also incorporated herein by reference.
(§2) The RSAT assay measures a receptor-mediated loss of contact inhibition that results in selective proliferation of receptor-containing cells in a mixed population of confluent cells. The increase in cell number is assessed with an appropriate transfected marker gene such as ∃-galactosidase, the activity of which can be easily measured in a 96-well format. Receptors that activate the G protein, Gq, elicit this response. Alpha 2 receptors, which normally couple to Gi, activate the RSAT response when coexpressed with a hybrid Gq protein that has a Gi receptor recognition domain, called Gq/i5.
(§3) NIH-3T3 cells are plated at a density of 2×10^6 cells in 15 cm dishes and maintained in Dulbecco's modified Eagle's medium supplemented with 10% calf serum. One day later, cells are cotransfected by calcium phosphate precipitation with mammalian expression plasmids encoding p-SV-β-galactosidase (5-10 μg), receptor (1-2 μg) and G protein (1-2 μg). 40 μg salmon sperm DNA may also be included in the transfection mixture. Fresh media is added on the following day and 1-2 days later, cells are harvested and frozen in 50 assay aliquots. Cells are thawed and 100 μl added to 100 μl aliquots of various concentrations of drugs in triplicate in 96-well dishes. Incubations continue 72-96 hr at 37° C. After washing with phosphate-buffered saline, ∃-galactosidase enzyme activity is determined by adding 200 μl of the chromogenic substrate (consisting of 3.5 mM o-nitrophenyl-β-D-galactopyranoside and 0.5% nonidet P-40 in phosphate buffered saline), incubating overnight at 30° C. and measuring optical density at 420 nm. The absorbance is a measure of enzyme activity, which depends on cell number and reflects a receptor-mediated cell proliferation. The efficacy or intrinsic activity is calculated as a ratio of the maximal effect of the drug to the maximal effect of a standard full agonist for each receptor subtype. Brimonidine, also called UK14304, the chemical structure of which is shown below, is used as the standard agonist for the alpha2A, alpha2B and alpha2C receptors.
(§4) The results of the RSAT assay with several exemplary compounds of the invention are disclosed in Table 1 below together with the chemical structures of these compounds. “Not active” means the compounds are not active at concentrations less than 10 micromolar.

[2] = molecular target: T2, alpha2B receptor (Homo sapiens, UniProt P18089); assay: RSAT (Receptor Selection and Amplification Technology) assay, alpha 2B; conditions: for Alpha 2B IA: intrinsic activity: ratio of maximal effect of drug to maximal effect of standard full agonist brimonidine (UK14304)
T2 construct: expressed in transfected cells; host or cells: NIH-3T3 cells
T2 sequence (P18089 1-450): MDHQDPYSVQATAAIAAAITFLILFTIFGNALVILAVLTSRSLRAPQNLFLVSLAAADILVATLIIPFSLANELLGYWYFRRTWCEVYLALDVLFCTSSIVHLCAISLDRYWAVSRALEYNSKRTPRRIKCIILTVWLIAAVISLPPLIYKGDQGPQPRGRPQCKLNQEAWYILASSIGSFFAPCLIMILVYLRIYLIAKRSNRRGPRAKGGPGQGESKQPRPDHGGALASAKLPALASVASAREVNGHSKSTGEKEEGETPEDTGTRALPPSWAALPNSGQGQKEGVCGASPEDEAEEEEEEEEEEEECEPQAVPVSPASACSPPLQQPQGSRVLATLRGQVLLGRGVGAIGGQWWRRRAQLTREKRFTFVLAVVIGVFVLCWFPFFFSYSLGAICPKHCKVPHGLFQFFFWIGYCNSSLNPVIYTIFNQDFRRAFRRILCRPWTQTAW
Protocol: as §2, §3

[3] = molecular target: T3, alpha2C receptor (Homo sapiens, UniProt P18825); assay: RSAT (Receptor Selection and Amplification Technology) assay, alpha 2C; conditions: for pEC50 / Alpha 2C EC50: RSAT, transfected NIH-3T3 cells, "not active" = not active at concentrations less than 10 micromolar; for Alpha 2C IA: intrinsic activity: ratio of maximal effect of drug to maximal effect of standard full agonist brimonidine (UK14304)
T3 construct: expressed in transfected cells; host or cells: NIH-3T3 cells
T3 sequence (P18825 1-462): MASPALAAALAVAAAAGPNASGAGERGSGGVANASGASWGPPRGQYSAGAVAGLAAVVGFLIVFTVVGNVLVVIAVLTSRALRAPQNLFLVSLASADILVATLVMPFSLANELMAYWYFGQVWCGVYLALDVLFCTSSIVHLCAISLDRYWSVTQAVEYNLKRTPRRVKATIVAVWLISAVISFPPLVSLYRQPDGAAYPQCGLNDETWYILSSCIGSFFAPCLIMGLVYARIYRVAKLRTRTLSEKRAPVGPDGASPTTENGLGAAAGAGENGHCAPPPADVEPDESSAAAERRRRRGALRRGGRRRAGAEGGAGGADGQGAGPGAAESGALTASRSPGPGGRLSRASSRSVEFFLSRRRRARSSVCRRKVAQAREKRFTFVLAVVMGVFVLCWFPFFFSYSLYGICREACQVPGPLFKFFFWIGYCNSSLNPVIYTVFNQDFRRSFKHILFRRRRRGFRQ
Text: as §1, §2, §3, §4

[4] = RSAT, transfected NIH-3T3 cells, "not active" = not active at concentrations less than 10 micromolar, read-out: Alpha 2B EC50

SMILES | pEC50 [1] | Alpha 2A IA [1] | pEC50 [2, 4] | Alpha 2B IA [2] | pEC50 [3] | Alpha 2C IA [3] | Alpha 2A EC50 [1] | Alpha 2C EC50 [3] | pEC50 [2]
Cc1ccccc1NC(=O)NCCF [Compound 22, 1-(2-fluoro-ethyl)-3-o-tolyl-urea] | < 5.70 | 0.38 | 5.81 | 0.92 | < 5.70 | 0.48 |  |  | 
Cc1cccc(C)c1NC(=O)NCCF [Compound 23, 1-(2,6-dimethyl-phenyl)-3-(2-fluoro-ethyl)-urea] | < 5.70 | 0.61 | 6.17 | 0.75 | < 5.70 | 0.43 |  |  | 
CCc1ccccc1NC(=O)NCCF [Compound 24, 1-(2-ethyl-phenyl)-3-(2-fluoro-ethyl)-urea] | 5.57 | 0.35 | < 5.70 | 0.82 | < 5.70 | 0.36 |  |  | 
O=C(NCCF)Nc1ccc2ccccc2c1 [Compound 25, 1-(2-fluoro-ethyl)-3-naphthalen-2-yl-urea] | 5.90 | 0.58 | 5.80 | 0.99 | < 5.70 | 0.59 |  |  | 
O=C(NCCF)Nc1ccccc1Br [Compound 26, 1-(2-bromo-phenyl)-3-(2-fluoro-ethyl)-urea] |  |  | 5.58 | 0.33 |  |  | not active | not active | 
Cc1cccc(NC(=O)NCCF)c1C [Compound 27, 1-(2,3-dimethyl-phenyl)-3-(2-fluoro-ethyl)-urea] | < 5.70 | 0.54 | 6.40 | 0.9 | 6.13 | 0.73 |  |  | 
O=C(NCCF)Nc1cccc2c1CCCC2 [Compound 28, 1-(2-fluoro-ethyl)-3-(5,6,7,8-tetrahydro-naphthalen-1-yl)-urea] | 6.41 | 0.43 | 6.80 | 0.87 | 6.55 | 0.74 |  |  | 
O=C(NCCF)Nc1cccc2c1CCC2 [Compound 29, 1-(2-fluoro-ethyl)-3-indan-4-yl-urea] | 6.03 | 0.37 | 5.91 | 0.89 | 5.59 | 0.63 |  |  | 
O=C(NCCF)Nc1cccc2ccccc12 [Compound 30, 1-(2-fluoro-ethyl)-3-naphthalen-1-yl-urea] | 5.97 | 0.74 | 6.34 | 0.9 | < 5.70 | 0.66 |  |  | 
O=C(NCCF)NCc1cccc2c1OCO2 [Compound 31, 1-benzo(1,3)dioxol-4-ylmethyl-3-(2-fluoro-ethyl)-urea] | < 5.70 | 0.48 | 6.92 | 1.0 | 5.70 | 1.2 |  |  | 
O=C(NCCF)NC(c1ccccc1)c1ccccc1 [Compound 32, 1-benzhydryl-3-(2-fluoro-ethyl)-urea] |  |  | 6.49 | 0.58 |  |  | not active | not active | 
C[C@H](NC(=O)NCCF)c1ccccc1 [Compound 33, (−)-(S)-1-(2-Fluoro-ethyl)-3-(1-phenyl-ethyl)-urea] | 6.52 | 0.63 | 7.18 | 0.99 | 6.29 | 0.64 |  |  | 
Cc1cccc(C(NC(=O)NCCF)c2ccc(C)s2)c1 (stereo not drawn) [Compound 34, 1-(2-fluoro-ethyl)-3-[(5-methyl-thiophen-2-yl)-m-tolyl-methyl]-urea] |  |  | 6.08 | 0.41 |  |  | not active | not active | 
O=C(NCCF)NCc1ccccn1 [Compound 35, 1-(2-fluoro-ethyl)-3-pyridin-2-ylmethyl-urea] |  |  |  | 0.75 | 5.43 | 0.38 | not active |  | 5.70
Cc1cccc(CNC(=O)NCCF)n1 [Compound 36, 1-(2-fluoro-ethyl)-3-(6-methyl-pyridin-2-ylmethyl)-urea] | 5.76 | 0.62 | 6.38 | 0.78 | 5.75 | 0.52 |  |  | 
Cc1cccnc1CNC(=O)NCCF [Compound 37, 1-(2-fluoro-ethyl)-3-(3-methyl-pyridin-2-ylmethyl)-urea] |  |  |  | 0.40 |  |  | not active | not active | 5.45
O=C(NCCF)NCc1cccc(Br)n1 [Compound 38, 1-(6-bromo-pyridin-2-ylmethyl)-3-(2-fluoro-ethyl)-urea] |  |  | 6.23 | 0.85 | 5.66 | 0.65 | not active |  | 
Cc1ccnc(CNC(=O)NCCF)c1 [Compound 39, 1-(2-Fluoro-ethyl)-3-(4-methyl-pyridin-2-ylmethyl)-urea] | 5.66 | 0.36 | 6.46 | 0.77 | 5.81 | 0.61 |  |  | 
Cc1ccc(CNC(=O)NCCF)o1 [Compound 40, 1-(2-fluoro-ethyl)-3-(5-methyl-furan-2-ylmethyl)-urea] |  |  |  | 0.83 | 5.58 | 0.56 | not active |  | 6.01
O=C(NCCF)NCc1ccc(O)cc1 [Compound 41, 1-(2-fluoro-ethyl)-3-(4-hydroxy-benzyl)-urea] |  |  | 6.53 | 0.84 | 6.10 | 0.69 | not active |  | 
O=C(NCCF)NCc1cccc(O)c1 [Compound 42, 1-(2-fluoro-ethyl)-3-(3-hydroxy-benzyl)-urea] | 5.45 | 0.33 | 6.86 | 0.81 | 5.98 | 0.67 |  |  | 
